Experimental data published in patent US9937194B1, “Compounds and methods for treating inflammatory diseases” (priority 2009, dated 2018).
Converted amounts (≈) assume the structure as drawn.

What was measured:
TNFα = assay: LPS-induced TNFα release in PMA-differentiated U937 cells (ELISA); assay type: cell-based, human; conditions: for TNFα inhibition (%): test concentration not given
Procedure: (§1) Cytokine ELISA. LPS-induced IL-8, TNFα concentrations and TNFα-induced IL-8 concentrations are determined by sandwich ELISA according to the manufacturer's instructions (R&D Systems Europe). IC50 values for dexamethasone on IL-8 production are calculated using the computer program Prism 4.0 (GraphPad Software Inc., San Diego, Calif.) as a marker for steroid sensitivity.
(§2) Effects of compounds on LPS-induced IL-8 and TNFα release in PMA-differentiated U937 cells. PMA-differentiated macrophage-like cells are pretreated with compounds described herein for 1 hr, followed by LPS (100 ng/ml) stimulation for 4 hrs. LPS-induced IL-8 and TNFα release is evaluated by ELISA. Values represent means of three experiments±SEM.

MMP9 = assay: PMA-induced MMP9 expression in U937 cells (gelatin zymography); assay type: cell-based, human; conditions: test concentration not given; bracketed second value not explained
Procedure: Zymography. MMP9 enzyme activity is measured by gelatin zymography. 5 μl of supernatants were diluted with 5 μl Laemli sample buffer (Bio-Rad) and are loaded on a Novex® 10% Zymogram (Gelatin) gel (Invitrogen). After electrophoresis (90 min, 125 V, 35 mA, 5 W) gels are incubated with 1× Novex® zymogram renaturing buffer (Invitrogen) for 30 min at room temperature with gentle agitation. Gels are then rinsed in 1× Novex® zymogram developing buffer (Invitrogen) for 30 min at room temperature with gentle agitation prior to overnight incubation in the developing buffer at 37° C. After incubation the gels are stained using the colloidal blue staining kit (Invitrogen) with buffer containing 20% methanol and 70% distilled water to visualize the zymogen bands. Relevant band intensities are quantified by densitometric analysis using the UVP GelDoc-It system.
Effects of compounds on PMA-induced MMP9 expression in U937 cells. U937 cells are pretreated with compounds described herein for 1 hr, followed by PMA (50 ng/ml) treatment for 48 hrs. After 48 hrs supernatants are collected for zymography. MMP9 enzyme activity is measured by gelatin zymography. Data are expressed as fold changes against positive control treated with PMA only. Values represent means of three experiments±SEM.

[1] = assay type: cell-based; conditions: test concentration not given
Procedure: The human monocytic cell line U937 and the human type II alveolar epithelial carcinoma cell line A549 were obtained from the American Type Culture Collection (ATCC, Rockville, Md.). PBMCs from COPD patients were obtained in Brompton hospital and separated by AccuSPIN (Sigma-Aldrich, Poole, UK). Cells were cultured in complete growth medium (Sigma-Aldrich) (RPMI 1640 for U937, PBMCs, and Dulbecco's modified essential medium (DMEM) for A549) supplemented with 10% fetal bovine serum (FBS) and 1% L-glutamine at 37° C. in a humidified atmosphere with 5% CO2. U937 were differentiated into an adherent macrophage-like morphology by exposure to PMA (50 or 100 ng/ml) for 48 hrs in complete growth medium. Cell viability was assessed microscopically by trypan blue staining. Cell toxicity was determined by MTT assay as needed. This study was approved by the ethics committee of the Royal Brompton Hospitals, and all subjects gave written informed consent.

IL-8 = assay: LPS-induced IL-8 release in PMA-differentiated U937 cells (ELISA); assay type: cell-based, human; conditions: for IL-8 inhibition (%): test concentration not given
Procedure: as §1, §2

HDAC activity = assay: H2O2-induced reduction of HDAC activity in PMA-differentiated U937 cells; assay type: cell-based, human; conditions: for restoration of H2O2-reduced HDAC activity (%): test concentration not given, bracketed second value not explained
Procedure: In cell HDAC assay. Cells are incubated with Fluor de Lys™ substrate for 1 hr before lyses. Total HDAC activity from whole cell extracts is measured using the HDAC Fluorimetric Assay/Drug Discovery Kit (BIOMOL® International, Inc., Plymouth Meeting, Pa.).
HDAC expression: In cell HDAC activity assay: U937 is differentiated to macrophage type cells by PMA for 3 days. HDAC fluorescent substrate (Biomol) is added before exposure of oxidative stress (H2O2, 200 μM) or Tobacco smoke conditioned medium for 4 hrs. HDAC activity is measured (Biomol kit). Compounds at different concentrations are treated 20 min before oxidative stress treatment.
PMA-differentiated macrophage-like cells are pretreated with compounds described herein for 20 min. After H2O2 (200 μM) stimulation for 4 hrs, HDAC activity is assayed. Data are expressed as fold changes against positive control treated with H2O2 only. Values represent means of four experiments±SEM.

H. influenzae ATCC 49247 = assay: MIC; assay type: cell-based
[2] = test system: N. gonorrhoeae ATCC 49226; assay: MIC; assay type: cell-based; parameters: unit not given beside the values
E. coli ATCC 25922 = assay: MIC; assay type: cell-based; conditions: in µg/mL
[3] = test system: S. aureus ATCC 29213 (MSSA) MLS-S; assay: MIC; assay type: cell-based
P. aeruginosa ATCC 27853 = assay: MIC; assay type: cell-based
[4] = test system: S. typhimurium ATCC 14028; assay: MIC; assay type: cell-based; conditions: in µg/mL
S. pneumoniae ATCC 49619 = assay: MIC; assay type: cell-based
K. pneumonia 13883 = assay: MIC; assay type: cell-based; conditions: in µg/mL
S. pyogenes ATCC 19615 = assay: MIC; assay type: cell-based; conditions: in µg/mL
E. faecium ATCC 19434 = assay: MIC; assay type: cell-based
S. aureus MRSA 33591 = assay: MIC; assay type: cell-based
Akt = assay: H2O2-induced phosphorylation of Akt in PMA-differentiated U937 cells (western blot); assay type: cell-based, human; conditions: PMA-differentiated U937; H2O2 1 mM 30 min
Procedure: Cell Lysis and Western Blotting. Whole cell protein extracts are prepared using modified RIPA buffer (50 mM Tris HCL pH 7.4, 0.5% NP-40, 0.25% Na-deoxycholate, 150 mM NaCl with freshly added complete protease (Roche). Phosphatase inhibitor (Active Motif) is also added when required. Protein concentration is determined using the Bio-Rad Protein Assay (Bio-Rad). Proteins are separated by SDS-PAGE under denaturing conditions, and electrotransferred to a nitrocellulose membrane (Amersham Biosciences, Amersham, U.K.) (Western blotting). The membranes are blocked in TBS containing 0.05% Tween 20 and 5% non-fat dried milk, and then incubated with anti-pAkt or Akt antibody followed by an horse radish peroxidase-conjugated secondary antibody (Dako UK Ltd., Ely, UK). Bound antibodies are visualized by ECL Plus (GE Healthcare UK Ltd., Little Chalfont, UK). The band density is calculated by densitometry (UVP Bioimaging Systems, Cambridge, UK) using Labworks software (Ultra-Violet Products, Cambridge, UK).
Effects of compounds on H2O2-induced phosphorylation of Akt in PMA-differentiated U937 cells. PMA-differentiated macrophage-like cells are pretreated with compounds described herein for 20 min. After H2O2 (1 mM) stimulation for 30 min, cells are lysed. Phosphorylation levels of Akt are measured by western blot. Data are calculated relative to total protein, and expressed as fold changes against positive control treated with H2O2 only. Values represent means of three or four experiments±SEM.

Structure (SMILES) | TNFα inhibition (%) (TNFα) | MMP9 inhibition (%) (MMP9) | Cell Toxicity (% cell death) [1] | IL-8 inhibition (%) (IL-8) | restoration of H2O2-reduced HDAC activity (%) (HDAC activity) | MIC H. influenzae ATCC 49247 (H. influenzae ATCC 49247) | MIC N. gonorrhoeae ATCC 49226 [2] | MIC E. coli ATCC 25922 (E. coli ATCC 25922) | MIC S. aureus ATCC 29213 (MSSA) MLS-S [3] | MIC P. aeruginosa ATCC 27853 (P. aeruginosa ATCC 27853) | MIC S. typhimurium ATCC 14028 [4] | MIC S. pneumoniae ATCC 49619 (S. pneumoniae ATCC 49619) | MIC K. pneumonia 13883 (K. pneumonia 13883) | MIC S. pyogenes ATCC 19615 (S. pyogenes ATCC 19615) | MIC E. faecium ATCC 19434 (E. faecium ATCC 19434) | MIC S. aureus MRSA 33591 (S. aureus MRSA 33591) | further results
CCC1OC(=O)C(C)C(OC2CC(C)(OC)C(OC(C)=O)C(C)O2)C(C)C(OC2OC(C)CC(N(C)C)C2O)C(C)(OC)CC(C)C(=O)C(C)C2N(CCCCn3cc(CN(C)C)nn3)C(=O)OC12C (centres unmarked) [Example 24] | 6% | 11% | −3% | 60% | 85% | 64 µg/mL (≈ 64.3 µM) | – | – | – | – | – | – | – | – | – | – | –
CCC1OC(=O)C(C)C(OC2CC(C)(OC)C(OC(C)=O)C(C)O2)C(C)C(OC2OC(C)CC(N(C)C)C2O)C(C)(OC)CC(C)C(=O)C(C)C2N(CCCCn3cc(CO)nn3)C(=O)OC12C (centres unmarked) [Example 25] | 15% | 10% | −8% | 26% | 72 (63) % | 4 µg/mL (≈ 4.13 µM) | – | – | – | – | – | – | – | – | – | – | –
CC[C@H]1OC(=O)[C@H](C)C(=O)[C@H](C)[C@@H](O[C@@H]2O[C@H](C)C[C@H](N(C)C)[C@H]2O)[C@@](C)(OC)C[C@@H](C)CN(C(=O)CCCn2cc(-c3ccc(Br)cc3)nn2)[C@H](C)[C@@H](O)[C@]1(C)O [Example 41] | 45% | 39 (41) % | 8% | 54% | 14% | > 64 µg/mL | 64 | >64 | 64 µg/mL (≈ 72.7 µM) | > 64 µg/mL | >64 | 32 µg/mL (≈ 36.3 µM) | >64 | 64 | 64 µg/mL (≈ 72.7 µM) | > 64 µg/mL | –
CCC1OC(=O)C(C)C(OC2CC(C)(OC)C(O)C(C)O2)C(C)C(OC2OC(C)CC(N(C)C)C2O)C(C)(O)CC(C)CN(C)C(C)C2OC(=O)OC12C (centres unmarked) [Example 42] | 8% | −2% | −8% | −27% | 104 (79) % | 4 µg/mL (≈ 5.16 µM) | ≤0.125 | 8-32 | 1 µg/mL (≈ 1.29 µM) | > 64 µg/mL | 8-16 | ≤ 0.125 µg/mL | 8-32 | ≤0.125 | 8 µg/mL (≈ 10.3 µM) | > 64 µg/mL | –
CC[C@H]1OC(=O)[C@H](C)C(=O)[C@H](C)[C@@H](O[C@@H]2O[C@H](C)C[C@H](N(C)C)[C@H]2O)[C@](C)(OC)C[C@@H](C)C(=O)[C@H](C)[C@H]2N(CCCCn3cnc(-c4cccnc4)c3)C(=O)O[C@]12C [TEL, telithromycin, reference compound] | – | – | – | – | – | – | – | – | – | – | – | – | – | – | – | – | IC50 (TNFα; Homo sapiens, U-937, LPS-induced TNFα release, PMA-differentiated U937, NA = inactive): 231 ± 37 µM; inhibition of LPS-induced TNFα release compared with Example 33 (TNFα; LPS 100 ng/ml 4 hrs): at higher concentrations than Example 33; inhibition of LPS-induced IL-8 release compared with Example 33 (IL-8; LPS 100 ng/ml 4 hrs): did not show any inhibition at any concentration tested; restoration of HDAC activity compared with Example 33 (HDAC activity; PMA-differentiated U937, H2O2 200 μM 4 hrs): only at much higher doses than Example 33; HDAC activity reached compared with untreated controls (HDAC activity; PMA-differentiated U937, H2O2 200 μM, comparators at highest doses tested): only restore HDAC activity to levels comparable to untreated controls; inhibition of Akt phosphorylation compared with Example 33 (Akt): only at much higher concentrations than Example 33
